# Measurements as given in patent publication US8053447B2, “11β-hydroxysteroid dehydrogenase type 1 active compounds” (High Point Pharmaceuticals, LLC, priority 2006, dated 2011).
# Molecular target: T1, h-11βHSD1 (Homo sapiens, UniProt P28845)
# T1 construct: made in house
# Assay: 11βHSD1 enzyme assay (scintillation proximity assay, 3H-cortisone to 3H-cortisol)
# Assay type: biochemical
# Conditions: extract of yeast transformed with h-11βHSD1; 120 nM 3H-cortisone, 4 mM β-NADPH, 60 min at 30° C., SPA
# Experimental: Pharmacological Methods 11βHSD1 Enzyme Assay Materials
# ^3H-cortisone and anti-rabbit Ig coated scintillation proximity assay (SPA) beads were purchased from Amersham Pharmacia Biotech, β-NADPH was from Sigma and rabbit anti-cortisol antibodies were from Fitzgerald. An extract of yeast transformed with h-11βHSD1 (Hult et al., FEBS Lett, 441, 25 (1998)) was used as the source of enzyme. The test compounds were dissolved in DMSO (10 mM). All dilutions were performed in a buffer containing 50 mM TRIS-HCl (Sigma Chemical Co), 4 mM EDTA (Sigma Chemical Co), 0.1% BSA (Sigma Chemical Co), 0.01% Tween-20 (Sigma Chemical Co) and 0.005% bacitracin (Novo Nordisk A/S), pH=7.4. Optiplate 96 wells plates were supplied by Packard. The amount of ^3H-cortisol bound to the SPA beads was measured on TopCount NXT, Packard.
# h-11βHSD1, 120 nM ^3H-cortisone, 4 mM β-NADPH, antibody (1:200), serial dilutions of test compound and SPA particles (2 mg/well) were added to the wells. The reaction was initiated by mixing the different components and was allowed to proceed under shaking for 60 min at 30° C. The reaction was stopped be the addition of 10 fold excess of a stopping buffer containing 500 μM carbenoxolone and 1 μM cortisone. Data was analysed using GraphPad Prism software.
# T1 sequence (P28845 whole entry): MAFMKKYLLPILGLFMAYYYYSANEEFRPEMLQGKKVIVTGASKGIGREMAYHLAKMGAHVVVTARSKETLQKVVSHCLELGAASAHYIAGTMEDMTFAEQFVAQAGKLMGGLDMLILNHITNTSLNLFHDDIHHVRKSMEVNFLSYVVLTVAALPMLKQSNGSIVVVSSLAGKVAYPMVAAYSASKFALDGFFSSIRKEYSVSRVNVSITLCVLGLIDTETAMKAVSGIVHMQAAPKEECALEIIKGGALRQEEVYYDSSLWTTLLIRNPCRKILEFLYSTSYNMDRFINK
row,SMILES,IC50 [nM]
1,"CCS(=O)(=O)N1CCC(COc2ccc(C(=O)N(C)C3C4CC5CC3CC(O)(C5)C4)cc2)CC1 (centres unmarked) [Example 7f, 4-(1-Ethanesulfonyl-piperidin-4-ylmethoxy)-N-(5-hydroxy-adamantan-2-yl)-N-methyl-benzamide]",2180
2,"CC1(C)CC2CC(C)(CN2C(=O)c2ccc(OC3CCC(C(=O)O)CC3)cc2)C1 (centres unmarked) [Example A, 4-[4-(1,3,3-Trimethyl-6-aza-bicyclo[3.2.1]octane-6-carbonyl)-phenoxy]cyclohexanecarboxylic acid]",360
3,"O=C(c1ccc(OC2CCN(C(=O)C3CC3)CC2)cc1)N1CC2CCC(CC2)C1 [Example B, (3-Aza-bicyclo[3.2.2]non-3-yl)-[4-(1-cyclopropane-carbonyl-piperidin-4-yloxy)-phenyl]-methanone]",1350
4,"O=C(NC1CCC(Oc2ccc(C(=O)N3C4CCC3CC(O)C4)cc2)CC1)C1CC1 (centres unmarked) [Example C, Cyclopropanecarboxylic acid {4-[4-(3-hydroxy-8-aza-bicyclo[3.2.1]octane-8-carbonyl)-phenoxy]-cyclohexyl}-amide]",1070
5,"O=C(NC1C2CC3CC(C2)CC1C3)c1ccc(OC2CCC(COc3ccccn3)CC2)cc1 (centres unmarked) [Example E, 4-[4-(Pyridin-2-yl-oxy-methyl)-cyclohexyloxy]-N-adamantan-2-yl-benzamide]",295
6,"O=C(c1ccc(OCC2CCN(S(=O)(=O)c3ccccn3)CC2)cc1)N1CCCC2CCCCC21 (centres unmarked) [Example F, (Octahydro-quinolin-1-yl)-{4-[1-(pyridine-2-sulfonyl)-piperidin-4-ylmethoxy]-phenyl}-methanone]",134
7,"O=C(c1ccc(OC2CCN(C(=O)c3ccc(Cl)nc3)C2)cc1)N1CC2CCC(CC2)C1 (centres unmarked) [Example G, {3-[4-(3-Aza-bicyclo[3.2.2]nonane-3-carbonyl)-phenoxy]-pyrrolidin-1-yl}-(6-chloro-pyridin-3-yl)-methanone]",1180
8,"O=C(NC1C2CC3CC(C2)CC1C3)c1ccc(N2CC3CC2CO3)cc1 (centres unmarked) [Example H, 4-(2-Oxa-5-aza-bicyclo[2.2.1]hept-5-yl)-N-adamantan-2-yl-benzamide]",43

# The remaining lines, values ahead:
row,IC50 [nM],SMILES
1,604,"CC1(C)CC2CC(C)(CN2C(=O)c2ccc(OC3CCC(C(=O)O)C3)cc2)C1 (centres unmarked) [Example 8a, 3-[4-(1,3,3-Trimethyl-6-aza-bicyclo[3.2.1]octane-6-carbonyl)-phenoxy]-cyclopentane carboxylic acid]"
2,1650,"CN(C(=O)c1ccc(OC2CCC(NC(=O)C3CC3)CC2)cc1)C1C2CC3CC1CC(O)(C3)C2 (centres unmarked) [Example 8c, 4-[4-(Cyclopropanecarbonyl-amino)-cyclohexyloxy]-N-(5-hydroxy-adamantan-2-yl)-N-methyl-benzamide]"
3,266,"O=C(O)c1cccc(S(=O)(=O)N2CCC(COc3ccc(C(=O)N4CCCC5CCCCC54)cc3)CC2)c1 (centres unmarked) [Example 8f, 3-{4-[4-(Octahydro-quinoline-1-carbonyl)-phenoxymethyl]-piperidine-1-sulfonyl}-benzoic acid]"
4,163,"O=C(O)c1ccc(S(=O)(=O)N2CCC(COc3ccc(C(=O)N4CCCC5CCCCC54)cc3)CC2)cc1 (centres unmarked) [Example 9f, 4-{4-[4-(Octahydro-quinoline-1-carbonyl)-phenoxymethyl]-piperidine-1-sulfonyl}-benzoic acid]"
5,111,"CN(C)C(=O)C1CCC(Oc2ccc(C(=O)N3CC4(C)CC3CC(C)(C)C4)cc2)CC1 (centres unmarked) [Example 12a, 4-[4-(1,1,3,3-Trimethyl-6-aza-bicyclo[3.2.1]octane-6-carbonyl)-phenoxy]-cyclo-hexane carboxylic acid di-methylamide]"
6,73,"NC(=O)C1CCC(Oc2ccc(C(=O)N3CCCC4CCCCC43)cc2)CC1 (centres unmarked) [Example 13a, 4-[4-(Octahydro-quinoline-1-carbonyl)-phenoxy]-cyclo-hexanecarboxylic acid amide]"
